Tests used:
[1] = target: human α9α10 nAChR (Homo sapiens, UniProt Q9GZZ6+Q9UGM1); assay: cell-based; format: cell-based
[2] = system: Sprague Dawley rats; details: rat, in vivo
[3] = system: Sprague-Dawley rats; details: rat, in vivo
[4] = system: Sprague-Dawley rats; details: rat, in vivo; remark: listed apart in the source
[5] = system: Sprague-Dawley rats; details: rat, in vivo; remark: listed apart in the source
[6] = system: Sprague-Dawley rats; details: rat, in vivo; remark: listed apart in the source

Chain of human α9α10 nAChR (Q9UGM1 26-479 limits assumed): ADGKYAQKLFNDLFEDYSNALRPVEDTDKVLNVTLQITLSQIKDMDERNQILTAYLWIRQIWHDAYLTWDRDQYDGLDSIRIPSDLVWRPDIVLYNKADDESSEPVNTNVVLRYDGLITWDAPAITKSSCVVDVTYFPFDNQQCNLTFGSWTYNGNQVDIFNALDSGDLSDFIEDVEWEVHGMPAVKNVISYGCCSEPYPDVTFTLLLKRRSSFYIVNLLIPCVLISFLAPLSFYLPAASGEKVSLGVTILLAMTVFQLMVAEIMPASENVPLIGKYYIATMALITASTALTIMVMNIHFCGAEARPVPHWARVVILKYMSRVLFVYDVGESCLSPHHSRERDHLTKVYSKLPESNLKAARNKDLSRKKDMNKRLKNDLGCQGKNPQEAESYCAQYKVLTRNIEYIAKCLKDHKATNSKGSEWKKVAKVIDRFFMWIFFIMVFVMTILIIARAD
Chain of human α9α10 nAChR (Q9GZZ6 25-450 limits assumed): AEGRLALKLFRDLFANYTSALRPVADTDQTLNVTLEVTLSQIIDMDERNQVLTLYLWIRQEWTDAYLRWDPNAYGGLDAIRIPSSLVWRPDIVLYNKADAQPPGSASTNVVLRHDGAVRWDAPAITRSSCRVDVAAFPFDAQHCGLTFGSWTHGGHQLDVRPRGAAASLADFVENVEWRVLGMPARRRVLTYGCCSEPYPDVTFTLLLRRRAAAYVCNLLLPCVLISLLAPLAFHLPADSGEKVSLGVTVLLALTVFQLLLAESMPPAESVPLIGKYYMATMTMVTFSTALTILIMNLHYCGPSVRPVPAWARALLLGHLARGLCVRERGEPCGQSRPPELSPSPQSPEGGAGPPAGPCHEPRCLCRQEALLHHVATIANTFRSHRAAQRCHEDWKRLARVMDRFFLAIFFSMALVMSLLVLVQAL

Row | Compound | Fold improvement [1] | IC50 [1] | other results
1 | C[C@@H](O)[C@@H]1NC(=O)[C@@H]2CSSC[C@@H](C(=O)N[C@@H](CCCNC(=N)N)C(=O)N[C@@H](CCCNC(=N)N)C(=O)N[C@@H](CCCNC(=N)N)C(=O)O)NC(=O)[C@H](CCC(N)=O)NC(=O)[C@H](Cc3ccc(O)c(I)c3)NC(=O)[C@H](CCCNC(N)=O)NC(=O)[C@H](CSSC[C@H](NC(=O)CN)C(=O)N2)NC(=O)[C@H](CCCNC(=N)N)NC(=O)[C@@H]2CCCN2C(=O)[C@H](CC(=O)O)NC1=O [Analog 4] | 109 fold | 4.55 nM | –
2 | C[C@@H](O)[C@@H]1NC(=O)[C@@H]2CSSC[C@@H](C(=O)N[C@@H](Cc3ccc(O)cc3)C(=O)N[C@@H](CCCNC(=N)N)C(=O)N[C@@H](CCCNC(=N)N)C(=O)O)NC(=O)[C@H](CCC(N)=O)NC(=O)[C@H](Cc3ccc(O)c(I)c3)NC(=O)[C@H](CCCNC(N)=O)NC(=O)[C@H](CSSC[C@H](NC(=O)CN)C(=O)N2)NC(=O)[C@H](CCCNC(=N)N)NC(=O)[C@@H]2CCCN2C(=O)[C@H](CC(=O)O)NC1=O [Analog 5] | 325 fold | 1.52 nM | –
3 | C[C@@H](O)[C@@H]1NC(=O)[C@@H]2CSSC[C@@H](C(=O)N[C@@H](CCCNC(=N)N)C(=O)N[C@@H](CCCNC(=N)N)C(=O)N[C@@H](Cc3ccc(O)cc3)C(=O)O)NC(=O)[C@H](CCC(N)=O)NC(=O)[C@H](Cc3ccc(O)c(I)c3)NC(=O)[C@H](CCCNC(N)=O)NC(=O)[C@H](CSSC[C@H](NC(=O)CN)C(=O)N2)NC(=O)[C@H](CCCNC(=N)N)NC(=O)[C@@H]2CCCN2C(=O)[C@H](CC(=O)O)NC1=O [Analog 6] | 120 fold | 4.11 nM | –
4 | C[C@@H](O)[C@@H]1NC(=O)[C@@H]2CSSC[C@@H](C(=O)N[C@@H](Cc3ccccc3)C(=O)O)NC(=O)[C@H](CCC(N)=O)NC(=O)[C@H](Cc3ccc(O)c(I)c3)NC(=O)[C@H](CCCNC(N)=O)NC(=O)[C@H](CSSC[C@H](NC(=O)CN)C(=O)N2)NC(=O)[C@H](CCCNC(=N)N)NC(=O)[C@@H]2CCCN2C(=O)[C@H](CC(=O)O)NC1=O [Analog 7] | 470 fold | 1.05 nM | –
5 | C[C@@H](O)[C@@H]1NC(=O)[C@@H]2CSSC[C@@H](C(=O)N[C@@H](Cc3c[nH]c4ccccc34)C(=O)O)NC(=O)[C@H](CCC(N)=O)NC(=O)[C@H](Cc3ccc(O)c(I)c3)NC(=O)[C@H](CCCNC(N)=O)NC(=O)[C@H](CSSC[C@H](NC(=O)CN)C(=O)N2)NC(=O)[C@H](CCCNC(=N)N)NC(=O)[C@@H]2CCCN2C(=O)[C@H](CC(=O)O)NC1=O [Analog 8] | 236 fold | 2.09 nM | –
6 | C[C@@H](O)[C@@H]1NC(=O)[C@@H]2CSSC[C@@H](C(=O)N[C@@H](Cc3ccc(O)cc3)C(=O)N[C@@H](Cc3ccc(O)cc3)C(=O)O)NC(=O)[C@H](CCC(N)=O)NC(=O)[C@H](Cc3ccc(O)c(I)c3)NC(=O)[C@H](CCCNC(N)=O)NC(=O)[C@H](CSSC[C@H](NC(=O)CN)C(=O)N2)NC(=O)[C@H](CCCNC(=N)N)NC(=O)[C@@H]2CCCN2C(=O)[C@H](CC(=O)O)NC1=O [Analog 9] | 553 fold | 0.893 nM | –
7 | C[C@@H](O)[C@@H]1NC(=O)[C@@H]2CSSC[C@@H](C(=O)N[C@@H](Cc3ccc(O)cc3)C(=O)N[C@@H](CCCNC(=N)N)C(=O)O)NC(=O)[C@H](CCC(N)=O)NC(=O)[C@H](Cc3ccc(O)c(I)c3)NC(=O)[C@H](CCCNC(N)=O)NC(=O)[C@H](CSSC[C@H](NC(=O)CN)C(=O)N2)NC(=O)[C@H](CCCNC(=N)N)NC(=O)[C@@H]2CCCN2C(=O)[C@H](CC(=O)O)NC1=O [Analog 10] | 598 fold | 0.826 nM | –
8 | C[C@@H](O)[C@@H]1NC(=O)[C@@H]2CSSC[C@@H](C(=O)N[C@@H](Cc3ccc(O)cc3)C(=O)O)NC(=O)[C@H](CCC(N)=O)NC(=O)[C@H](Cc3ccc(O)c(I)c3)NC(=O)[C@H](CCCNC(=N)N)NC(=O)[C@H](CSSC[C@H](NC(=O)CN)C(=O)N2)NC(=O)[C@H](CCCNC(=N)N)NC(=O)[C@@H]2CCCN2C(=O)[C@H](CC(=O)O)NC1=O [Analog 11] | 1,123 fold | – | –
9 | C[C@@H](O)[C@@H]1NC(=O)[C@@H]2C[Se]SC[C@@H](C(=O)N[C@@H](CCCNC(=N)N)C(=O)O)NC(=O)[C@H](CCC(N)=O)NC(=O)[C@H](Cc3ccc(O)c(I)c3)NC(=O)[C@H](CCCNC(N)=O)NC(=O)[C@H](CS[Se]C[C@H](NC(=O)CN)C(=O)N2)NC(=O)[C@H](CCCNC(=N)N)NC(=O)[C@@H]2CCCN2C(=O)[C@H](CC(=O)O)NC1=O [SEQ ID NO:20, GX4X4TDPRCX2X3QCR] | 5.7 fold | – | fold increase in potency on the human receptor [1]: 10 fold
10 | GCCTDPRCRX3QCY [Analog 11] | – | – | burn-induced thermal hyperalgesia (Hargraves method) [2]: significantly reduced
11 | GCCTDPRCX2X3QCRRR [Analog 4] | – | – | potency on the human receptor after further optimization of Analog 2 [1]: improved potency
12 | GCCTDPRCX2X3QCY [Analog 3] | – | – | analgesic effect in OXA chemotherapy induced neuropathic pain [3]: analgesic effect; efficacy on mechanical hyperalgesia 24 h after injection [4]: still significant; pain threshold (mechanical hyperalgesia) 30 min after injection [4]: acutely increased pain threshold; prevention of OXA-induced mechanical hyperalgesia [4]: significantly prevented; OXA-induced pain threshold decrease (von Frey), day 7, 30 min [5]: reverted; activity on mechanical allodynia (von Frey), days 14 and 21 [5]: active; analgesic effect (von Frey), day 7, 24 h later [5]: not observed; prevention of OXA-induced cold allodynia, day 7 [6]: able to prevent OXA-induced cold allodynia; prevention of OXA-induced cold allodynia, day 14 and 21 [6]: able to prevent OXA-induced cold allodynia; potency on the human receptor after further optimization of Analog 2 [1]: improved potency
